US10907099B2, “Compound, composition, cured object, optically anisotropic body, and reflective film” (FUJIFILM Corporation, priority 2016, dated 2021)

Assays:
[1] = Measurement of light fastness (residual rate after ultraviolet irradiation); type: physicochemical; settings: for Evaluation of light fastness: 5 mg in acetonitrile 20 ml, 1 cm quartz cell, ultraviolet light 3 J/cm^2, residual rate by liquid chromatography; for light fastness (in words): based on the results in Table 1
Experimental: Each (5 mg) of the compounds was dissolved in acetonitrile (20 ml), sealed in a 1 cm quartz cell, and the quartz cell was irradiated with ultraviolet light under a condition of 3 J/cm^2 using EXECURE 3000-W manufactured by HOYA-SCHOTT CORPORATION, so that a residual rate of each compound was measured. Amounts (masses) of each compound before and after light irradiation were calculated using liquid chromatography. In the table, “A” represents a residual rate of equal to or greater than 80%, “B” represents a residual rate of equal to or greater than 50% and less than 80%, and “C” represents a residual rate of less than 50%.

[2] = Solubility measurement in ethyl methyl ketone; type: physicochemical; settings: concentration (% by mass) of compound completely dissolved in ethyl methyl ketone
Experimental: Ethyl methyl ketone was added dropwise to each of the compounds, and a concentration (% by mass) of the compound in the obtained ethyl methyl ketone solution in a case where the compound was completely dissolved in the solution was measured as “solubility”. It is intended that a higher numerical value of solubility indicates excellent solubility in ethyl methyl ketone.

SMILES | Evaluation of light fastness [1] | light fastness (in words) [1] | Solubility (MEK) [2]
C=CC(=O)OCCCCCCOc1ccc(C(=O)Oc2ccc(C#Cc3ccc(CCCCCCC)cc3)cc2)cc1 [Comparative Compound b-1, reference compound] | C (residual rate of less than 50%) | does not satisfy the desired requirement for light fastness | 
C=CC(=O)OCCCCOc1ccc(C#Cc2ccc(NC(=O)C(=O)Nc3ccc(C#Cc4ccc(OCCCCOC(=O)C=C)cc4)cc3C(F)(F)F)c(C(F)(F)F)c2)cc1 [Compound a-1] | A (residual rate of equal to or greater than 80%) | excellent in light fastness | 2%
C=CC(=O)OCCCCOc1ccc(C#Cc2cc(C)c(NC(=O)C(=O)Nc3ccc(C#Cc4ccc(OCCCCOC(=O)C=C)cc4)cc3C(F)(F)F)c(C)c2)cc1 [Compound a-2] | A (residual rate of equal to or greater than 80%) | excellent in light fastness | 14%
